Source: ChEMBL document CHEMBL4152341, “Small Molecules Simultaneously Inhibiting p53-Murine Double Minute 2 (MDM2) Interaction and Histone Deacetylases (HDACs): Discovery of Novel Multitargeting Antitumor Agents” (J Med Chem, 2018)
The source made the active and inactive calls. The rule behind the calls is not given here.

How the values were obtained:
A549 [1] = experiment: Antiproliferative activity against human A549 cells after 72 hrs by CCK8 assay; type: functional, cell-based; details: A549, 72 h
HCT-116 = experiment: Antiproliferative activity against human HCT116 cells after 72 hrs by CCK8 assay; type: functional, cell-based; details: HCT-116, 72 h
MCF7 = experiment: cells; details: Homo sapiens, MCF7, 72 h
Description: Antiproliferative activity against human MCF7 cells after 72 hrs by CCK8 assay

NCI-H1299 = experiment: Antiproliferative activity against human NCI-H1299 cells after 72 hrs by CCK8 assay; type: functional, cell-based; details: NCI-H1299, 72 h
Histone deacetylase 1 = Histone deacetylase 1 (Homo sapiens, UniProt Q13547); experiment: Inhibition of human recombinant full length HDAC1 using fluorogenic substrate 3 after 30 mins by fluorescence assay
Chain of Histone deacetylase 1 (Q13547 whole entry): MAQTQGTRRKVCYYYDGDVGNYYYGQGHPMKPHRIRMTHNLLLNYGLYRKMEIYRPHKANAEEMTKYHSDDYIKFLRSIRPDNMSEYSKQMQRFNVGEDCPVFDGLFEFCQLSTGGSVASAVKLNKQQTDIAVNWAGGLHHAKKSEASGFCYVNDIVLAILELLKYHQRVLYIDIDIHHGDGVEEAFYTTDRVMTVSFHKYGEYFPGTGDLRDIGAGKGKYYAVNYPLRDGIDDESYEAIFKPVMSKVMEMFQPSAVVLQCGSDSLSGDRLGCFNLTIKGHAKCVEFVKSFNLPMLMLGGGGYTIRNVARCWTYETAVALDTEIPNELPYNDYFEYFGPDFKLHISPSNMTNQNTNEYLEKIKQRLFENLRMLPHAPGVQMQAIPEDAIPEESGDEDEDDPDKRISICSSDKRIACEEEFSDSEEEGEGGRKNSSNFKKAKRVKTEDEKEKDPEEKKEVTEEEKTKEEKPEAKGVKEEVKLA

[2] = biological target: T1, Tumour suppressor p53/oncoprotein Mdm2 (Homo sapiens) (UniProt P04637+Q00987); experiment: Inhibition of MDM2/P53 interaction in human A549 cells assessed as increase in p53 expression at 10 uM after 12 hrs by Western blot analysis; type: cell-based
T1 sequence (P04637 whole entry, looked up): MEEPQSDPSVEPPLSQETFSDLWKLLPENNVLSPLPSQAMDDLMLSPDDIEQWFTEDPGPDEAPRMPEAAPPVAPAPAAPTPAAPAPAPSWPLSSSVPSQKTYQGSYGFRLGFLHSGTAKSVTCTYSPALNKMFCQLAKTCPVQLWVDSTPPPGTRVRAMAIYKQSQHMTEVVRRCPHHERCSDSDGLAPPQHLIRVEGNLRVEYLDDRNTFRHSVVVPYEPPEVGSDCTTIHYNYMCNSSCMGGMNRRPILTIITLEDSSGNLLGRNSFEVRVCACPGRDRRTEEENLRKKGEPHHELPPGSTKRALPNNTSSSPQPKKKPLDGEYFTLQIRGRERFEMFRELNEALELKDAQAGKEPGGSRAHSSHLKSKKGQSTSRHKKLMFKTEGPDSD
T1 sequence (Q00987 whole entry, looked up): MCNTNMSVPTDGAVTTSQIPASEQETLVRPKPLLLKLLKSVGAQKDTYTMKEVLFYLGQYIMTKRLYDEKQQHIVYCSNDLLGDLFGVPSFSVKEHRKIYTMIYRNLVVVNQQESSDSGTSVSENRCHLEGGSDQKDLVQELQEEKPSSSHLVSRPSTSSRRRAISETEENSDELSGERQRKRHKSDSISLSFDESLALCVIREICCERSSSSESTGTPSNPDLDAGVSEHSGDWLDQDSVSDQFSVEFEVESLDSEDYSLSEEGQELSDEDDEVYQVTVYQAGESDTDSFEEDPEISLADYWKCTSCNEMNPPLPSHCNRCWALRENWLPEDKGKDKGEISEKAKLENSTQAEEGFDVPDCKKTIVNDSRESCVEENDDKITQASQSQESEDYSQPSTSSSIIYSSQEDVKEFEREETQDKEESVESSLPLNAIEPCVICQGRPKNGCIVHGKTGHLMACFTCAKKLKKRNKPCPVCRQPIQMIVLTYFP

[3] = biological target: E3 ubiquitin-protein ligase Mdm2 (Homo sapiens, UniProt Q00987); experiment: Inhibition of MDM2 (unknown origin) preincubated for 30 mins by fluorescence polarization assay
Chain of E3 ubiquitin-protein ligase Mdm2 (Q00987 whole entry): as the sequence (Q00987 whole entry, looked up) above

A549 [4] = experiment: cells; details: Homo sapiens, A549, 48 h, read-out: Activity
A549 [5] = experiment: cells; details: Homo sapiens, A549, 48 h, read-out: Activity; remark: listed apart in the source
A549 [6] = experiment: animal or person; type: functional, Homo sapiens; details: Mus musculus, A549, po, read-out: TGI
[7] = biological target: T1, Tumour suppressor p53/oncoprotein Mdm2 (Homo sapiens); experiment: Inhibition of MDM2/P53 interaction in human A549 cells assessed as increase in p53 expression at 5 to 10 uM after 12 hrs by Western blot analysis; type: cell-based
[8] = biological target: T1, Tumour suppressor p53/oncoprotein Mdm2 (Homo sapiens); experiment: Inhibition of MDM2/P53 interaction in human A549 cells assessed as increase in MDM2 expression at 5 to 10 uM after 12 hrs by Western blot analysis; type: cell-based

| SMILES | IC50 (A549 [1]) | IC50 (HCT-116) | IC50 (MCF7) | IC50 (NCI-H1299) | IC50 (Histone deacetylase 1) | Activity [2] | Ki [3] | viability at 5 µM (A549 [4]) | viability at 1 µM (A549 [5]) | inhibition in vivo at 100 mg/kg (A549 [6]) | inhibition [7] | inhibition [8] |
| --- | --- | --- | --- | --- | --- | --- | --- | --- | --- | --- | --- | --- |
| CC(=O)Nc1ccc(C(=O)Nc2ccccc2N)cc1 [TACEDINALINE] | 10.2 µM | 9.83 µM | 13.2 µM | 6.79 µM |  |  |  |  |  |  |  |  |
| CCOc1cc(C(C)(C)C)ccc1C1=N[C@H](c2ccc(Cl)cc2)[C@H](c2ccc(Cl)cc2)N1C(=O)N1CCN(CCCCCCC(=O)NO)CC1 | 9.02 µM | 10 µM |  |  | 0.91 µM | Active | 10.9 µM |  |  |  |  |  |
| CCOc1cc(C(C)(C)C)ccc1C1=NC(c2ccc(Cl)cc2)C(c2ccc(Cl)cc2)N1C(=O)N1CCN(c2ncc(C(=O)NO)cn2)CC1 (stereo not drawn) | 1.97 µM | 0.98 µM | 3.46 µM | 5.45 µM | 0.31 µM |  | 1.05 µM |  |  |  |  |  |
| CCOc1cc(C(C)(C)C)ccc1C1=NC(c2ccc(Cl)cc2)C(c2ccc(Cl)cc2)N1C(=O)N1CCN(CCCCC(=O)NO)CC1 (stereo not drawn) | 3.78 µM | 5.21 µM | 9.8 µM | 12.9 µM | 0.98 µM |  | 0.17 µM |  |  |  |  |  |
| COc1ccc(C2=N[C@@H](c3ccc(Cl)cc3)[C@@H](c3ccc(Cl)cc3)N2C(=O)N2CCNC(=O)C2)c(OC(C)C)c1 [NUTLIN-3] | 9.58 to 11.7 µM | 9.07 to 9.97 µM | 8.5 µM | 19.8 µM | > 100 µM |  |  | 83.3% | 89.8% | 44% |  |  |
| O=C(CCCCCCC(=O)Nc1ccccc1)NO [VORINOSTAT] |  |  |  | 4.92 µM |  |  | > 20 µM |  |  |  |  |  |
| CCOc1cc(C(C)(C)C)ccc1C1=NC(c2ccc(Cl)cc2)C(c2ccc(Cl)cc2)N1C(=O)NCCCCCC(=O)NO (stereo not drawn) | 5.72 µM | 7.15 µM | 10.6 µM | 10.4 µM | 1.13 µM |  | 0.28 µM |  |  |  |  |  |
| CCOc1cc(C(C)(C)C)ccc1C1=NC(c2ccc(Cl)cc2)C(c2ccc(Cl)cc2)N1C(=O)NCCCCCC(=O)Nc1ccccc1N (stereo not drawn) | 20.3 µM | 21.8 µM | > 100 µM | 19.1 µM | > 20 µM |  | 1.43 µM |  |  |  |  |  |
| CCOc1cc(C(C)(C)C)ccc1C1=NC(c2ccc(Cl)cc2)C(c2ccc(Cl)cc2)N1C(=O)NCCCCCCC(=O)NO (stereo not drawn) | 5.97 µM | 7.09 µM | 7.23 µM | 7.65 µM | 0.89 µM |  | 0.32 µM |  |  |  |  |  |
| CCOc1cc(C(C)(C)C)ccc1C1=NC(c2ccc(Cl)cc2)C(c2ccc(Cl)cc2)N1C(=O)NCCCCCCC(=O)Nc1ccccc1N (stereo not drawn) | 16 µM | 10.1 µM | > 100 µM | 17.5 µM | 6.07 µM |  | 0.62 µM |  |  |  |  |  |
| CCOc1cc(C(C)(C)C)ccc1C1=NC(c2ccc(Cl)cc2)C(c2ccc(Cl)cc2)N1C(=O)NCCCCCCCC(=O)NO (stereo not drawn) | 4.85 µM | 5.03 µM | 7.92 µM | 9.06 µM | 0.27 µM |  | 0.34 µM |  |  |  |  |  |
| CCOc1cc(C(C)(C)C)ccc1C1=NC(c2ccc(Cl)cc2)C(c2ccc(Cl)cc2)N1C(=O)NCCCCC(=O)NO (stereo not drawn) | 9.34 µM | 10.7 µM | 12.8 µM | 16.2 µM | 2.92 µM |  | 0.33 µM |  |  |  |  |  |
| CCOc1cc(C(C)(C)C)ccc1C1=NC(c2ccc(Cl)cc2)C(c2ccc(Cl)cc2)N1C(=O)N1CCN(CCCCCC(=O)NO)CC1 (stereo not drawn) | 2.91 µM | 4.03 µM | 7.26 µM | 9.39 µM | 0.97 µM |  | 0.17 µM |  |  |  |  |  |
| CCOc1cc(C(C)(C)C)ccc1C1=NC(c2ccc(Cl)cc2)C(c2ccc(Cl)cc2)N1C(=O)N1CCN(Cc2ccc(C(=O)NO)cc2)CC1 (stereo not drawn) | 2.17 µM | 2.03 µM | 3.97 µM | 3 µM | 3.51 µM |  | 0.26 µM |  |  |  |  |  |
| CCOc1cc(C(C)(C)C)ccc1C1=NC(c2ccc(Cl)cc2)C(c2ccc(Cl)cc2)N1C(=O)N1CCN(CCCCCCCC(=O)NO)CC1 (stereo not drawn) | 2.01 µM | 1.71 µM | 4.83 µM | 7.76 µM | 0.41 µM |  | 0.29 µM |  |  |  |  |  |
| CCOc1cc(C(C)(C)C)ccc1C1=NC(c2ccc(Cl)cc2)C(c2ccc(Cl)cc2)N1C(=O)N1CCC(C(=O)Nc2ccc(/C=C/C(=O)NO)cc2)CC1 (stereo not drawn) | 7.59 µM | 9.64 µM | 7.22 µM | 9.36 µM | 0.97 µM |  | 2.65 µM |  |  |  |  |  |
| CCOc1cc(C(C)(C)C)ccc1C1=NC(c2ccc(Cl)cc2)C(c2ccc(Cl)cc2)N1C(=O)NCc1ccc(C(=O)NO)cc1 (stereo not drawn) | 7.64 µM | 9.1 µM | 13.3 µM | 7.71 µM | 3.7 µM |  | 0.58 µM |  |  |  |  |  |
| CCOc1cc(C(C)(C)C)ccc1C1=NC(c2ccc(Cl)cc2)C(c2ccc(Cl)cc2)N1C(=O)NCCCCC(=O)Nc1ccccc1N (stereo not drawn) | 18.4 µM | 13.9 µM | 29.1 µM | 15.6 µM | > 20 µM |  | 0.96 µM |  |  |  |  |  |
| CCOc1cc(C(C)(C)C)ccc1C1=NC(c2ccc(Cl)cc2)C(c2ccc(Cl)cc2)N1C(=O)N1CCC(C(=O)NO)CC1 (stereo not drawn) | 2.99 µM | 9.3 µM | 10.1 µM | 9.87 µM | 9.72 µM |  | 0.057 µM |  |  |  |  |  |
| CCOc1cc(C(C)(C)C)ccc1C1=NC(c2ccc(Cl)cc2)C(c2ccc(Cl)cc2)N1C(=O)NCCCCCCCC(=O)Nc1ccccc1N (stereo not drawn) | 15.2 µM | 9.91 µM | 20.3 µM | 19.6 µM | 3.59 µM |  | 1.02 µM |  |  |  |  |  |
| CCOc1cc(C(C)(C)C)ccc1C1=NC(c2ccc(Cl)cc2)C(c2ccc(Cl)cc2)N1C(=O)N1CCC(Nc2ncc(C(=O)NO)cn2)CC1 (stereo not drawn) | 3.11 µM | 3.24 µM | 2.68 µM | 7.91 µM | 1.01 µM |  | 0.46 µM |  |  |  |  |  |
| CCOc1cc(C(C)(C)C)ccc1C1=NC(c2ccc(Cl)cc2)C(c2ccc(Cl)cc2)N1C(=O)N1CCN(CC(=O)NO)CC1 (stereo not drawn) | 4.32 µM | 5.88 µM | 11.7 µM | 11.5 µM | 4.2 µM |  | 0.07 µM |  |  |  |  |  |
| CCOc1cc(C(C)(C)C)ccc1C1=N[C@@H](c2ccc(Cl)cc2)[C@@H](c2ccc(Cl)cc2)N1C(=O)N1CCN(CCCCCCC(=O)NO)CC1 | 0.99 µM | 1.11 µM |  |  | 0.89 µM |  | 0.06 µM |  |  |  | Active | Active |
